Molecular target: T1, Cytochrome P450 1B1 (Homo sapiens, UniProt Q16678)
T1 sequence (Q16678 whole entry): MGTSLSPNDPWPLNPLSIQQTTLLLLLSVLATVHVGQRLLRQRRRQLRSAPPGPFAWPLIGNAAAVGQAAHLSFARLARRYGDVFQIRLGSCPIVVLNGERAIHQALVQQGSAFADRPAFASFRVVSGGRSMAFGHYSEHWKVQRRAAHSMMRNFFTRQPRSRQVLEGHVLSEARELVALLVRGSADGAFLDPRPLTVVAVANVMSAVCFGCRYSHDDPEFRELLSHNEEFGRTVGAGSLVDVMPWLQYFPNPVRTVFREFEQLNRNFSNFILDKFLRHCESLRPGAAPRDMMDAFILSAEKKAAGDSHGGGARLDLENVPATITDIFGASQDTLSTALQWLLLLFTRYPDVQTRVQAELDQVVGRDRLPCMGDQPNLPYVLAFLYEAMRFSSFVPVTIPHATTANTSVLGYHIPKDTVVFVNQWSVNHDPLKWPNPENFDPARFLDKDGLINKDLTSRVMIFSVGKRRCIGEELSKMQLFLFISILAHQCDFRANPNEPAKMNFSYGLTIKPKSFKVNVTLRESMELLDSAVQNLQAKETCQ
Test: Inhibition of human CYP1B1 transfected in HEK293 cells assessed as reduction in cisplatin EC50 at 20 uM by MTT assay
Assay type: cell-based
Conditions: hek293, 20 µM; call rule not given here

SMILES: O=C(/C=C/c1ccc(OC(F)(F)F)cc1)c1ccc[nH]1
- inhibition (INH): Not Active
